Test results as given in patent publication US20100204277A1, “Compositions and Methods for Controlling Infestation” (HATCHTECH PTY LTD., priority 2007, published 2010).

Key:
[1] = tested on: proteases in louse egg shell washings (ESW); experiment: Gelatine substrate SDS-PAGE of louse egg shell washings incubated with protease inhibitors; format: biochemical, Pediculus humanus humanus
Experimental: Within 12 hours of hatching 50 body lice eggs (Pediculus humanus humanus) were removed from the hair and placed in a 1 mL eppendorf tube. 20 μL of distilled water was added to the unhatched eggs and the preparation incubated for 30 minutes at 32° C. The 20 μL was recovered, freeze dried and stored at −70° C. This sample was referred to as sample 1. A number of other samples were also collected as described. Sample 2 was collected by removing the unhatched louse eggs from four hairs that were approximately 3 cm long, cutting the hair into 0.5 cm lengths, and placing them into a microfuge tube containing 20 μl of distilled water and incubating at 32° C. for 30 minutes. Sample 3 was collected as for sample 2, but the hair was placed in a tube containing 10 mL of 1% sodium hypochlorite for 1 minute followed by five 1 minute washes in 25 mL of distilled water to remove the sodium hypochlorite before being incubated in a microfuge tube containing 20 μl of distilled water and incubated as for Sample 2. Sample 4 was collected from unhatched eggs which were removed from the hair and washed with 1% sodium hypochlorite and incubated in 20 μl of distilled water in the same manner as the hair in Sample 3. Finally, Sample 5 was collected from eggs that were within 24 hrs of hatching which were washed with 1% sodium hypochlorite, then returned to the incubator at 32° C. until they hatched, the empty egg shells collected 0-2 hrs after egg-hatching, placed in a 1 mL microfuge tube containing 20 μl of distilled water and incubated as for Samples 1-4. For all samples 1-5 the 20 μl of fluid was recovered, freeze-dried and stored at −70° C. The washings recovered from these freshly hatched egg shells are referred to as egg-shell-washings (ESWs). In order to look for the presence of proteases present in these different samples, the freeze-dried samples were resuspended in 15 μL of non-reducing SDS sample buffer, centrifuged at 10,000 g for 2 minutes and the entire 15 μL loaded on to 10% gelatine substrate SDS-PAGE gels. Gels were run at 4° C. for 10 minutes at 10 mA followed by a further 25 minutes at 15 mA per gel. They were then incubated for 2×20 minutes in a 2.5% Triton-X 100 solution followed by a three hour incubation in 0.1M Tris/HCl containing 1 mM CaCl2 pH 8.0. Activity was detected as clear areas on the gel the result of protease activity degrading the gelatine within the gel.
Protease activity in the ESWs from louse eggs was also examined using two-dimensional gel electrophoresis. It was necessary to collect large numbers of freshly hatched egg shells. Following egglaying onto pieces of cloth, adult female lice were removed and the cloth with the eggs washed with 1% sodium hypochlorite as for collection of ESWs. The eggs were then returned to the incubator and permitted to hatch. Typically 100 to 500 hatched egg shells were collected (0-2 hours post hatching), placed in a microfuge tube containing 200 μl of distilled water, incubated and sample treated as described above. For analysis, ESWs were resuspended in rehydration buffer (8 M Urea, 2% 3-[(3-cholamidopropyl) dimethylammonio]-1-propanesulfonate 2% Immobilised pH gradient buffer 3-10 (Amersham Phamacia Biotech, Uppsala, Sweden)) and used to rehydrate 7 cm Immobiline Dry strips pH 3-10 (Amersham Bioscience) overnight. Strips were transferred to the Multiphor II (Pharmacia, Sweden) apparatus, electrophoresed in the first dimension at 200 V for 1 min, increasing to 3,500 V over the next 90 min followed by 65 min at 3,500 V, equilibrated (6 M urea, 30% glycerol, 50 mM Tris pH 8.8 and 2% SDS) and then run on a 10% SDS-PAGE gel containing 0.1% gelatin for the second dimension. The gel was then run and developed as previously described.
10% SDS-PAGE gelatine substrate gels were loaded with freeze dried egg shell washings from 100 lice eggs that had been resuspended in 50 μL of non-reducing sample buffer with samples run at 10 μL per lane. […]

head lice egg = experiment: Head lice egg hatching, time course; format: in vivo, Pediculus humanus capitus; settings: 10 mM, 10 minutes
Experimental: Tests were carried out to determine if metal chelating agent and metalloprotease inhibitor 1,10-phenanthroline could inhibit head lice egg (Pediculus humanus capitus) hatching as opposed to body lice. Head lice eggs were obtained by placing groups of both 1-2 adult male and 6-8 adult female head lice in separate wells in a 24 well petri dish containing cotton cloth. The petri dish was transferred to a humid incubator at 32° C., 70% RH for 12 hours to permit the female lice to lay their eggs. After 12 hours, all adult lice were removed from the petri dish wells and a series of time-course experiments conducted. A group of eggs (24 hr old) was treated for 10 minutes with 200 μL of a 10 mM solution of 1,10-phenanthroline. A control (ie no inhibitor treatment) group of eggs was also included. The eggs were removed from the inhibitor, blotted dry on tissue paper, placed at 32° C., 70% RH and left to hatch. A second group of eggs, (48 hours old) were treated as previously described and also left to hatch. This process was repeated at 24 hour intervals on head lice eggs up to 120 hours post laying.

[2] = tested on: Lice (L) / Plutella (P) eggs; format: in vivo; settings: 10 mM; Lice/Plutella: L P
Experimental: Log LD50 is obtained from the observed percentage ovicidal activity by conversion using a modified logit transformation. The observed percentage ovicidal activity values were transformed using the equation:
The additional 5% was used to allow a number to be calculated when 0% and 100% activity was observed. The BA is a crude correction to the log of the concentration at which the compounds were tested. Correlation between BA values and LD50 allows the calculation of Log LD50. […] A number of metal chelating agents with potential for inhibiting the remodelling events associated with thin membrane egg hatching in lice were analysed by comparing their percentage ovicidal activity in lice at different concentrations, their logit calculated pLD50, Pref pLD50, Activity class, clogP and molar refractivity were determined.

lice eggs = experiment: Standard lice egg-hatching assay with commercial head lice products; format: in vivo; settings: Example 10; products per manufacturer's recommendations, 1,10-phenanthroline 10 mM
Experimental: The ovicidal properties of three major commercial head lice products were evaluated in the standard lice egg-hatching assay. The 3 commercial head lice products were as follows:
These three products were tested according to manufacturer's recommendations. Groups of eggs (24 hours old) were treated with the different products according to manufacturer's recommendations for the appropriate period of time (5-10 minutes) followed by a rinse for 1-2 minutes in 32° C. water. A positive controls (10 mM 1,10-phenanthroline) and two negative controls (no treatment and 20% Methanol) were also incorporated. Post exposure to the different products, the eggs were rinsed with warm water at 32° C. before being blotted dry on tissue paper and placed at 32° C., 70% RH and left to hatch. A second group of eggs, (48 hours old) were treated as previously described and also left to hatch. This process was repeated at 24 hour intervals on head lice eggs up to 120 hours post laying.
The ovicidal properties of two major commercial head lice products were evaluated in the standard lice egg-hatching assay. The 2 commercial head lice products were as follows:
These two products were tested according to manufacturer's recommendations. […]

[3] = tested on: Helicoverpa armigera eggs; experiment: Helicoverpa egg hatch; settings: 10 mM; Example 16; exposed 2-10 seconds; day 6 post laying
Experimental: A range of concentrations were made up in water and the eggs placed in the solutions for approximately 2-10 seconds. The eggs which had been laid on cloth were then blotted dry and placed in an incubator at 26° C. for 3-4 days until hatch. Hatch rates were then assessed compared to a water only treated control (FIG. 5).
The compound was dissolved in 100% diethoxyglycol and diluted to a final concentration of 1% in water.
Several hundred Helicoverpa armigera eggs (Tatura×Toowoomba strains) were collected, that had been laid on fine mesh cloth over a 24 hour period.
Batches of Helicoverpa eggs were exposed to a specific inhibitor solution for between 2-10 seconds the excess solution drained by blotting with dry tissue paper. The egg masses were then placed in a humid box at 25 degrees until egg hatch. Control eggs were exposed to absolute methanol as described above. At day 6 post laying the eggs were assessed from the different treatments and the percentage of egg hatch determined relative to the control as shown in Table 12.
Batches of Helicoverpa eggs were then exposed to a specific inhibitor solution for between 2-10 seconds the excess solution drained by blotting with dry tissue paper. The egg masses were then placed in a humid box at 25° C. until egg hatch. Control eggs were exposed to absolute methanol as described above. At day 6 post laying the eggs were assessed from the different treatments and the percentage of egg hatch determined relative to the control as shown in Table 13.

[4] = tested on: Plutella xylostella eggs (Waite strain); experiment: Plutella xylostella egg hatch (egg dip); settings: 10 mM; Example 12; dip 2-10 seconds; day 6 post laying
Experimental: Several hundred Plutella xylostella eggs (Waite strain) were collected, that had been laid over a 24 hour period.
The egg masses were then placed in a humid box at 25° C. until egg hatch. Control eggs were exposed to absolute methanol as described above. At day 6 post laying the eggs were assessed from the different treatments and the percentage of egg hatch determined relative to the control as shown in Table 9.
Batches of Plutella eggs that were laid on either fine cloth or parafilm were dipped in a specific inhibitor solution for between 2-10 seconds, the excess solution was drained by blotting with dry tissue paper. The egg masses were then placed in a humid box at 25 degrees until egg hatch. Control eggs were exposed to absolute methanol as described above or not treated. At day 6 post laying the eggs were assessed from the different treatments and the percentage of egg hatch determined relative to the controls as shown in Tables 10 and 11.
The egg masses were then placed in a humid box at 25 degrees until egg hatch. Control eggs were exposed to absolute ethanol as described above. On day 6 post laying the eggs were assessed from the different treatments and the percentage of egg hatch determined relative to the control.

[5] = tested on: body lice eggs (clothing lice); experiment: In vitro lice egg hatching bioassay (standard lice assay, time course)
Experimental: Male and female clothing lice were fed on a rabbit as previously described. Female and male adult lice in a ratio of 3:1 were then transferred to a clean petri dish containing nylon cloth approximately 3×3 cm^2 and left for 12 hours at 32° C. During this period the female lice laid their eggs and attached them to the woven cloth. All lice would then be removed and the eggs permitted to incubate for the following 5 days. On Day 6 the cloth containing the eggs would be placed for 1 minute in a 1% sodium hypochlorite solution and then washed extensively. The eggs would then progress through to their final stages of development and hatch.
Lice eggs were laid onto cloth as described above. Five days post laying the cloth containing lice eggs was removed and immersed in a 1% sodium hypochlorite solution before being washed extensively in distilled water and blotted dry on tissue paper. Lice eggs were counted under a dissecting microscope and the cloth cut into batches of between 10-30 eggs with 3-5 replicates used per treatment. The cloth containing lice eggs was then immersed in a protease inhibitor solution for a period of 10 minutes, placed on tissue paper for 1 minute to dry before being transferred to a clean petri dish and incubated until hatching. […] Specifically a stock solution was prepared as follows: 1,10-phenanthroline (200 mM in methanol). In addition, the equivalent levels of the solvent were added to the non-inhibitor containing controls eggs to test for any buffer alone effects. Percentage hatch inhibition was calculated as the percentage reduction in egg hatch compared to the untreated control. The untreated control was assigned a percentage hatch of 100%.
A series of time-course experiments was conducted as a means of assessing inhibitors of lice egg hatching. […]
An experiment was undertaken to determine whether washing of the eggs would effect the inhibitory activity of 1,10-phenanthroline (Table 3). […] Percentage hatch inhibition was calculated as the percentage reduction in egg hatch compared to the untreated control. […]

c1cnc2c(c1)ccc1cccnc12 [1,10-phenanthroline]
protease activity of egg shell washings, two dimensional gel ([1]; gel incubated with 10 mM 1,10-phenanthroline): general reduction in protease activity in the 25-30 kDa region and a clear reduction in the proteases present around the 50 kDa region and above 75 kDa | protease activity of egg shell washings compared to untreated controls ([1]; gelatine SDS-PAGE strips, EDTA 10 mM, 1,10-phenanthroline 10 mM, PMSF 5 mM, E-64 10 μM, Pepstatin 5 μM, 3 hrs at 37° C.): reduction in protease activity | egg hatching in head lice (head lice egg): significantly inhibit | Activity class 0 = inactive 1 = low 2 = med 3 = high [2]: 1 (a pLD50 value between 2 and 3 is considered weakly active (Class 1)) | ovicidal activity across the different stages of lice egg hatching (lice eggs): highly effective | % Inhibition of egg hatch relative to control [3]: able to inhibit | % Inhibition of egg hatch relative to control [4]: significantly inhibit | inhibition of lice egg hatching following washing of eggs in water ([5]; 10 mM, 10 minutes, washed 1 minute): still highly efficacious | inhibition of egg hatching in lice ([5]; 10 mM, eggs treated 5 days post laying, 10 minutes): significantly inhibited | egg hatching in lice ([5]; 2.5-10 mM, all time points examined): significantly inhibit
